Data taken from patent US5284759A, “Biological production of acetal or ketal substituted benzene compounds” (Minnesota Mining and Manufacturing Company, priority 1992, dated 1994).
In brackets after ≈: the same amount, converted by molar mass.

What was measured:
[1] = test system: Pseudomonas putida strain F39/D; assay: substrate toxicity: growth of strain F39/D in the presence of the test compounds; format: cell-based
Excerpt: (§1) Two significant parameters of each substrate tested were toxicity and water solubility. The combined effects of those parameters will influence the maximum rate of biotransformation by the microbial culture. Methods were developed to examine the effects of substrate concentration on the rate of biotransformation and cell growth. The rates of biotransformation were apparently independent of the substrates' water solubility. For example, the solubilities of bromobenzene, acetophenone, and 1-phenyl-1,2-ethanediol in MSB buffer (at 30° C.) are approximately 400 mg/liter, 2000 mg/liter, and 5000 mg/liter, respectively. Bromobenzene, one of the least water-soluble substrates tested, was transformed to its dihydrodiol by strain F39/D at an average rate of about 20 mg/liter/hour. […] Substrate toxicity was determined by examining the growth rate of strain F39/D in the presence of the test compounds.

[2] = solubility of substrates in MSB buffer; format: physicochemical
Excerpt: as §1

[3] = test system: Pseudomonas putida strain F39/D; assay: rate of biotransformation of substrate to its dihydrodiol by strain F39/D; format: cell-based
Excerpt: as §1
Biotransformation preferably involves the addition of the starting substrate to an induced microbial cell suspension. The microorganisms are then allowed to grow such that the enzyme, arene 2,3-dioxygenase may act on the substrate. The induced microorganisms are prepared as described above. […]

| SMILES | growth of the microbes ([1]; 1000 mg/l (one-half saturated level)) | solubility in MSB buffer ([2]; msb buffer) | growth of the microbes ([1]; 400 mg/l (saturated level)) | average rate of transformation to its dihydrodiol [3] | rate of transformation compared with acetophenone or 1-phenylethanediol ([3]; relative to acetophenone or 1-phenylethanediol transformation) | solubility in MSB buffer ([2]; MSB buffer, 30° C.) |
| --- | --- | --- | --- | --- | --- | --- |
| CC(=O)c1ccccc1 [acetophenone] | completely inhibited | ~2000 µg/mL (≈ 16.6 mM) | – | – | – | – |
| OCC(O)c1ccccc1 (stereo not shown) [1-phenyl-1,2-ethanediol] | – | ~5000 µg/mL (≈ 36.2 mM) | – | – | – | – |
| Brc1ccccc1 [bromobenzene] | – | – | apparently unaffected | about 20 mg/liter/hour | much greater than that of acetophenone or 1-phenylethanediol transformation | approximately 400 mg/liter |
